Read-outs that look alike come from different tables or passages of the source.
Tests used:
[1] = test system: mechanical allodynia in rats; test: Mechanical allodynia in vivo assay (spinal nerve ligation); design: species or system rat; conditions: for analgesia against mechanical allodynia: oral administration; for ED50: Rattus norvegicus, sc
Method: This assay determines the effectiveness of compounds in relieving one of the symptoms of neuropathic pain produced by spinal nerve ligation, namely mechanical allodynia. The surgical procedure was performed essentially as described by Kim and Chung, Pain, (1992) 50:355-363. Briefly, the rats were anesthetized with an intraperitoneal dose of pentobarbital sodium (65 mg/kg) with additional doses of anesthetic given as needed. Each animal was then placed in a prone position, a 3 cm lateral incision was made, and the left paraspinal muscles separated from the spinous process at the L4 -S2 level. The L6 transverse process was then removed in order to visually identify the L4 -L6 spinal nerves. The L5 and L6 spinal nerves were then individually isolated and tightly ligated with silk thread. The wound was then closed in layers by silk sutures. Seven to 28 days post-surgery, a calibrated series of eight von Frey filaments were used to assess mechanical allodynia. Animals were housed individually in plexiglass cages with a wire mesh floor. Filaments of increasing stiffness were applied perpendicular to the midplantar surface in the sciatic nerve distribution areas of the left hindpaw and were slowly depressed (4-6 seconds) until bending occurred. The filament application order and number of trials were determined by the up-down method of Dixon (Chaplan, et al., J. Neurosci. Methods, (1994) 53:55-63). Flinching and licking of the paw and paw withdrawal on the ligated side were all considered positive responses. The 50% paw withdrawal threshold (g) was then calculated and compared to control. The doses for the acute and chronic studies were selected on the basis of prior assessment of the acute effects on the test compounds on the gross behavior in normal rats. Briefly, the rats were weighed and grouped into cages, dosed with the test compound, and observed continuously for changes in behavior. […] Pinna and corneal reflexes were tested by using a piece of natural hair from a brush that is attached to a glass rod. The righting reflexes were tested by placing the rat flat on its back, and recording the time it takes for the animal to right itself onto all four legs. The posture and gait were assessed by placing the rat on the floor.

cold allodynia in rats [2] = test: Cold allodynia in vivo assay (chronic constriction injury), acute studies; design: species or system rat; conditions: cold allodynia, subcutaneous, acute; for ED50: Rattus norvegicus, sc; for potency (ED50) comparison of (R)-isomers: in words
Method: (§1) This assay determines the effectiveness of compounds in relieving one of the symptoms of neuropathic pain produced by unilateral mononeuropathy, namely cold allodynia. Unilateral mononeuropathy was produced in rats using the Chronic Constriction Injury model performed essentially as described by Bennet and Xie, Pain, (1988) 33:87-107. Briefly, the rats were anesthetized with an intraperitoneal dose of pentobarbital sodium (65 mg/kg) with additional doses of anesthetic given as needed. The lateral aspect of each rat's hind limb was shaved and scrubbed with Novasan. Using aseptic technique, an incision was made on the lateral aspect of the hind limb at the mid-thigh level. The biceps femoris was bluntly dissected to expose the sciatic nerve. On the right hind limb of each rat, four loosely tied ligatures were made around the sciatic nerve approximately 1-2 millimeters apart. On the left side of each rat, an identical dissection was performed except that the sciatic nerve was not ligated. The muscle was closed with a continuous suture pattern, and the skin was closed with wound clips. Each rat was placed individually into a plexiglass chamber with a metal plate 6 cm from the bottom. This chamber was filled with ice water to a depth of 2.5 cm above the metal plate, with the temperature of the bath maintained at 0° C. throughout the experiment. A timer was started, and the rat's response latency was measured to the nearest tenth of a second. A "response" was defined as a rapid withdrawal of the right ligated hindpaw completely out of the water while the animal was stationary and not pivoting. An exaggerated limp while the animal was walking was not scored as a response. Maximum immersion time was 20 seconds with a 20 minute interval between trials. The screening criteria were 1) the average of two trials was less than or equal to 13 seconds, and 2) there was consistency across the two trial scores. Animals were screened for hypersensitivity to cold on post-surgery days 4 through 10, and selected for inclusion in dose-response studies based on the criteria described above. The pre-dose screening values were used as the animal's baseline cold allodynia scores. For acute studies, the animals received either subcutaneous or oral injections and were tested for cold allodynia at 1, 3, and sometimes 5 hours post-dose. The selection of doses was similar to that of Example 12C.

cold allodynia in rats [3] = test: Cold allodynia in vivo assay (chronic constriction injury), chronic studies; design: species or system rat; conditions: oral, chronic; (R)-enantiomer 10 and 20 mg/kg, sub-threshold
Method: as §1, with “chronic” for “acute”, “animals received subcutaneous or oral injections twice daily for 4 days and once on day 5. The animals were tested for allodynia on day 1 at 1, 3 and 5 hours following the 8 am dose, and at 5 hours following the 8 am dose on days 3 and 5. Two days later, the animals were tested for cold allodynia to assess whether there was a wash-out of the drug being tested. Following this screening for cold allodynia, the animals in two of the three chronic studies” for “animals”, “of the drug” for “and were tested for cold allodynia”, “a dose previously shown” for “1, 3, and sometimes 5 hours post-dose. The selection of doses was similar”, “produce significant anti-allodynic effects acutely. […]” for “that of Example 12C.”

[4] = Adverse effects / gross behavior on dosing; format: in vivo, rat; conditions: for doses with adverse side effects / behavioral problems / adverse side effects observed: cold allodynia acute study; for adverse side effects observed: doses higher than 60 mg/kg
Method: The doses for the acute and chronic studies were selected on the basis of prior assessment of the acute effects on the test compounds on the gross behavior in normal rats. Briefly, the rats were weighed and grouped into cages, dosed with the test compound, and observed continuously for changes in behavior. […] Pinna and corneal reflexes were tested by using a piece of natural hair from a brush that is attached to a glass rod. The righting reflexes were tested by placing the rat flat on its back, and recording the time it takes for the animal to right itself onto all four legs. The posture and gait were assessed by placing the rat on the floor.
The selection of doses was similar to that of Example 12C.

[5] = test system: voltage-gated sodium channels ([3H]BTX binding, rat cortex); test: [3H]BTX binding assay, rat cortex membranes; conditions: rat brain cortex membranes
Method: The following assays characterize the interaction of the compounds of Formula I with ligand binding sites on voltage-gated sodium channels.
Frozen tissues were obtained from Pel-Freez Biologicals (Rogers, AR). Tissues were homogenized in 10 volumes of a Tris-sucrose buffer (10 mM Tris-HCl, 250 mM sucrose, pH 7.4 at 4° C.) using 10 strokes with a glass-glass, hand-held homogenizer. The homogenates were filtered through nylon mesh and then centrifuged at 1,000×g for 15 minutes. The pellets were resuspended in a Hepes buffer (50 mM Hepes, 130 mM choline chloride, 5 mM glucose, 5.4 mM KCl, pH 7.4 at 4° C.). The resuspended pellets were centrifuged at 1,000×g for 15 minutes, resuspended in a Hepes buffer (50 mM Hepes, 130 mM choline chloride, 5 mM glucose, 5.4 mM KCl, pH 7.4 at 25° C.) and, frozen at -70° C. until used in binding assays.
Nonspecific binding was defined in the presence of 1 mM veratridine. Unless otherwise specified, PbTx (0.1 μM) and LqTx (50 μg/ml) were included in the assays. Membranes were incubated for 60 minutes at 25° C. and then filtered using GF/B glass fiber filters that had been pretreated with 0.3% PEI. Filters were rinsed with 3×1 ml of ice cold 50 mM Tris-HCl (pH 7.4 at 4° C.) and the bound radioactivity was determined by scintillation counting (Packard Top-count).

neuropathic pain models = test: Neuropathic pain models / standard assays (summary statements); format: in vivo; conditions: summary statement, (S)- vs (R)-enantiomer
[6] = mechanical allodynia, subcutaneous
[7] = subcutaneous, mechanical allodynia study

SMILES	EDmax [1, 6]	maximal analgesic activity (Emax) [1, 6]	analgesia against mechanical allodynia [1]	ED50 (cold allodynia in rats [2]; 1 hr, read-out: ED50 1 hr)	ED50 (cold allodynia in rats [2]; 3 hr, read-out: ED50 3 hr)	Emax 1 hr (cold allodynia in rats [2]; 1 hr)	Emax 3 hr (cold allodynia in rats [2]; 3 hr)	ED50 [1, 6]	doses with adverse side effects / behavioral problems ([4]; subcutaneous)	adverse side effects observed ([4]; subcutaneous)	potency (ED50) comparison of (R)-isomers (cold allodynia in rats [2])	further results
Cc1cccc(C)c1OCC(C)N (racemic) [Formula II racemate, 2-(2,6-Dimethylphenoxy)-1-methyl-ethylamine, reference compound]	29%	29%	did not produce analgesia	29.8 mg/kg	33.6 mg/kg	73%	80%	–	–	–	–	anti-allodynic effect after chronic oral dosing (cold allodynia in rats [3]): no anti-allodynic effect
CNC(C)COc1c(C)cccc1C (racemic) [Formula III racemate, [2-(2,6-dimethylphenoxy)-1-methylethyl]-methylamine]	67%	67%	–	–	–	–	–	31.3 mg/kg	–	–	–	–
CCCNC(C)COc1c(C)cccc1C (racemic) [Formula IV racemate, [2-(2,6-Dimethylphenoxy)-1-methylethyl]-propylamine, reference compound]	–	–	–	–	–	–	–	> 30 mg/kg	–	–	–	potency (ED50) comparison ([1]; mechanical allodynia, subcutaneous, in words): less potent than compound III; adverse events [4, 7]: adverse events; dose at which adverse events occur [4, 7]: 60 mg/kg; adverse events ([4]; subcutaneous, mechanical allodynia study, listed as Compound IV): convulsions and severe ataxia
CCN[C@@H](C)COc1c(C)cccc1C [Formula I (S)-, (S)-[2-(2,6-dimethylphenoxy)-1-methylethyl]-ethylamine]	–	–	did not produce analgesia	12.8 mg/kg	10 mg/kg	100%	58%	–	higher than 60 mg/kg	convulsions and immobility	–	potency of (R)- versus (S)-enantiomer in inhibiting [3H]BTX binding [5]: no difference in the potencies; doses with adverse side effects ([4]; oral administration, mechanical allodynia study): greater than 60 mg/kg; deleterious side effects (neuropathic pain models): deleterious side effects are largely confined to the (S)-enantiomer
CN[C@H](C)COc1c(C)cccc1C [Formula III (R)-, [2-(2,6-dimethylphenoxy)-1-methylethyl]-methylamine, reference compound]	–	–	–	26.1 mg/kg	31.4 mg/kg	76%	74%	–	–	–	comparable potency	–
CCCN[C@H](C)COc1c(C)cccc1C [Formula IV (R)-, [2-(2,6-Dimethylphenoxy)-1-methylethyl]-propylamine, reference compound]	–	–	–	28.4 mg/kg	29.9 mg/kg	74%	74%	–	higher than 60 mg/kg	splayed limbs and abnormal righting reflexes	comparable potency	–

From US5688830A, “Treatment of neuropathic pain” (Syntex (U.S.A.) Inc., priority 1997, dated 1997)
